For experiment [1], the species on record is Rattus norvegicus. Put plainly: Tested for percent immobility time in the ring test, expressed as % of control (p<0.01). The format is functional.
The test system of experiment [2] is Rattus norvegicus. Put plainly: Tested for decrease in rectal temperature 5 min after ip injection. The format is functional.
Experiment [3] is filed under the species Rattus norvegicus. The experiment can be described thus: Tested to induce analgesia in hot plate test, expressed as percent of latency time (p<0.05). The format is functional.
The test system of experiment [4] is Rattus norvegicus. Put plainly: Tested for decrease in rectal temperature 10 min after ip injection. Format: functional.
The species named for experiment [5] is Rattus norvegicus. Put plainly: Tested to induce analgesia in hot plate test, expressed as percent of latency time. Format: functional. (Thermal pain tests record how soon the animal reacts.)
Experiment [6] addresses Cannabinoid receptor 1 (Rattus norvegicus, UniProt P20272). The experiment can be described thus: Concentration required to displace 0.4 nM [3H]SR-141,716A from CB1 receptor in rat brain preparations in the presence of 0.1 mM phenylmethyl sulfonyl fluoride. Format: tissue-based.

The values below come from ChEMBL document CHEMBL1134181, “Synthesis and biological evaluation of novel amides of polyunsaturated fatty acids with dopamine” (Bioorg Med Chem Lett, 2001).

Chain of Cannabinoid receptor 1 (P20272 whole entry): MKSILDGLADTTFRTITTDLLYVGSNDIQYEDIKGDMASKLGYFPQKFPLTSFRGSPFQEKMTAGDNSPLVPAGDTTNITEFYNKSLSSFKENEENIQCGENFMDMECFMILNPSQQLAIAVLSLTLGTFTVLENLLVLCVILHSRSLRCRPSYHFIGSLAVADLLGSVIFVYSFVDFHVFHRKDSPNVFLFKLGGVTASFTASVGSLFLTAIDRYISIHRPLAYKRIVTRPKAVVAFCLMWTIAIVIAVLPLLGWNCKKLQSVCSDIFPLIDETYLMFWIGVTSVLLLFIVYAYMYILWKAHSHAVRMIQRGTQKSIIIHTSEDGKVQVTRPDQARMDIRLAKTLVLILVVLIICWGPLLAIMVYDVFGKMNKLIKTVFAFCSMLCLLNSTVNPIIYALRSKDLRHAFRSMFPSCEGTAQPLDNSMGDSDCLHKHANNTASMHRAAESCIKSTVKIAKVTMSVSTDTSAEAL

Turning to `CC/C=C\C/C=C\C/C=C\C/C=C\C/C=C\CCCC(=O)NCCc1ccc(O)c(O)c1`, the Immobility time in experiment [1] is given as 658%. For the same compound, in experiment [2], the Rectal temperature stood at 1.64 °C. For the same compound, in experiment [3], the Latency time turned out to be 135%.
Turning to `CC/C=C\C/C=C\C/C=C\C/C=C\CCCCC(=O)NCCc1ccc(O)c(O)c1`, the Immobility time in experiment [1] is listed as 570%. Also, the Rectal temperature was 1.67 °C in experiment [4] and 1.45 °C in experiment [2]. The compound also returned a Latency time in experiment [5] of 120%.
For `CCCCC/C=C\C/C=C\C/C=C\CCCCCCC(=O)NCCc1ccc(O)c(O)c1` the same measures were 693%, 0.7 °C, 0.43 °C and 129%.
One may read the Ki as the dissociation constant of the complex between target and ligand, obtained from inhibition or displacement. Take `CCCCC/C=C\C/C=C\C/C=C\C/C=C\CCCC(=O)NCCc1ccc(O)c(O)c1` [ARACHIDONOYL DOPAMINE]: in experiment [6], the inhibitory constant (Ki) is 380 nM. Further, in experiment [1], the Immobility time amounted to 500%. The Rectal temperature in experiment [4] was 1.27 °C; in experiment [2] it was 1.35 °C. The compound further displayed a Latency time in experiment [3] of 222%.
Consider `CCCCC/C=C\C/C=C\CC/C=C\CCCC(=O)NCCc1ccc(O)c(O)c1`, for which the inhibition constant (Ki) in experiment [6] was determined as 1720 nM. Also, in experiment [1], the Immobility time came to 528%. Besides, the results for the Rectal temperature in experiment [4] and in experiment [2] were 0.4 °C and 0.5 °C, respectively. The compound also yielded a Latency time in experiment [5] of 162%.
Consider `CCCCC/C=C\C/C=C\C/C=C\C/C=C\CCCC(=O)NCCO` [ANANDAMIDE], for which the Immobility time in experiment [1] stood at 750%. Also, the Rectal temperature in experiment [4] was determined as 2.53 °C; in experiment [2], 1.93 °C. This compound showed a Latency time in experiment [5] of 165%.
Turning to `CC/C=C\C/C=C\C/C=C\C/C=C\C/C=C\CCCCCC(=O)NCCc1ccc(O)c(O)c1`, the Ki in experiment [6] was determined as 1370 nM. In experiment [1], this compound returned an Immobility time of 610%. In addition, the figures for the Rectal temperature in experiment [4] and in experiment [2] were 1.82 °C and 1.35 °C, respectively. The compound also showed a Latency time in experiment [3] of 144%.
As for `CC/C=C\C/C=C\C/C=C\C/C=C\C/C=C\C/C=C\CCC(=O)NCCc1ccc(O)c(O)c1`, in experiment [1], the Immobility time is recorded as 674%. Moreover, the Rectal temperature is 1.1 °C in experiment [4] and 0.9 °C in experiment [2]. Further, the Latency time in experiment [3] is given as 296%.
